Here are results for 6 molecules from patent publication US20190147975A1, “SF3B1 SUPPRESSION AS A THERAPY FOR TUMORS HARBORING SF3B1 COPY LOSS” (DANA-FARBER CANCER INSTITUTE, INC., priority 2016, published 2019).

In data set [1] the test system is Hs578T, Cal51 cells. Nature of the data set: Drug sensitivity curves for splicing inhibitors in cells without and with SF3B1 suppression. The class given is cell-based, human. The text has this:
FIG. 26A is a series of graphs showing drug sensitivity curves for indicated splicing inhibitors (“NSC-95397”, “pladienolide B”, “spliceostatin A”) in cells (“Hs578T”, “Cal51”) without and with SF3B1 suppression.

The test system of data set [2] is SF3B1. In words: Immunoblot of SF3B1 expression in Cal51 cells treated with DUB inhibitors. The class given is cell-based, human. Particulars: treated for 4 or 24 hours. How it is done: FIG. 37 is an immunoblot showing SF3B1 expression in Cal51 cells treated with de-ubiquitinase (DUB) inhibitors (“PR-619”, “b-AP15”, “SJB3-019A”) for 4 or 24 hours. For all figures, *p<0.05, **p<0.01, ***p<0.001 unless otherwise indicated, and error bars represent +/−standard deviation.
In addition to SF3B1 RNA interference and SF3B inhibition, SF3B1 suppression can be exerted by deubiquitinase (DUB) inhibition. […] Therefore, DUB inhibitors may be capable of killing SF3B1^loss cells specifically.
For denaturing protein immunoblots, cells were washed in ice cold PBS and lysed in 1× RIPA buffer (10 mM Tris-Cl Ph 8.0, 1 mM EDTA, 1% Triton X-100, 0.1% SDS and 140 mM NaCl) supplemented with lx protease and phosphatase inhibitor cocktail (PI-290, Boston Bioproducts). Lysates were sonicated in a bioruptor (Diagenode) for 5 minutes (medium intensity) and cleared by centrifugation at 15000×g for 15 min at 4 C. Proteins were electrophoresed on polyacrylamide gradient gels (Life Technologies) and detected by chemiluminescence. For native western blotting, cells were washed in ice cold PBS and lysed in 1× sonication buffer (10% Glycerol, 25 mM HEPES pH 7.4, 10 mM MgCl2) supplemented with protease and phosphatase inhibitors. Coomassie blue native PAGE western blots were run according the manufacturer's instructions (Life Technologies).
Background: A western blot detects proteins with antibodies after separation by electrophoresis.

In data set [3] the test system is CRISPR^frameshift-loss xenografts. Nature of the data set: Xenograft growth with doxycycline-induced SF3B1 suppression. To be noted: doxycycline-induced shRNA, p=0.001. Format: in vivo, nude mice. From the text: (§1) To test the effects of SF3B1 suppression in vivo, xenografts were generated using luciferase-labeled cell lines from the CRISPR^frameshift-loss and CRISPR^neutral#1 cells containing TR-shSF3B1#3. Animals were placed on doxycycline upon detection of palpable tumors. CRISPR^frameshift-loss and CRISPR^neutral#1 cells generated tumors of similar volume in the absence of doxycycline (FIG. 34; p=0.7, repeated measures ANOVA).
All animal husbandry was done with the approval of the Dana-Farber Cancer Institute IACUC. 1×10^6 CRISPR^neutral#1 or CRISPR^frameshift-loss cells expressing TR-shSF3B1 #3 were subcutaneously injected into opposing flanks of nude mice (Foxn1 nu/nu, Harlan). Animals were randomized to control group or doxycycline treatment after detection of a palpable tumor on either flank. Mice in the doxycycline treatment arm were continuously fed a doxycycline diet (2,000 ppm). Mice were sacrificed at the end of the experiment, or when endpoints were reached based on failure to thrive according to IACUC recommendation. […]
A custom image analysis pipeline was used to systematically quantify Ki67+ cells from tumor xenografts using CellProfilier. A minimum of 3 tumors per group, totaling at least 2,440 nuclei per tumor, was used to quantify the ratio of Ki67+ cells. At least 5 individual and random microscopic images from each tumor were analyzed.

For data set [4], the system named is SF3B1^loss HCC1954 xenografts. In words: Growth of established xenograft tumors without or with doxycycline. The class given is in vivo. Particulars: with doxycycline vs without.
Description: FIG. 36B is a graph showing growth of established tumors for HCC1954 xenografts without doxycycline (“−Dox”, n=13) or with doxycycline (“+Dox”, n=12) using TR-shSF3B1 #3. ***p≤0.001.
as §1

In data set [5] the test system is SF3B1^neutral Cal51 xenografts. The description is as above. The class given is in vivo. Particulars: with doxycycline vs without.
Description: FIG. 36A is a graph showing growth of established tumors for Cal51 xenografts without doxycycline (“−Dox”, n=13) or with doxycycline (“+Dox”, n=12) using TR-shSF3B1 #3.
as §1

Consider `O=C1C(SCCO)=C(SCCO)C(=O)c2ccccc21` [NSC95397], for which, in data set [1] (cells with SF3B1 copy-loss or suppression), the “increased effects on cells with SF3B1 copy-loss or suppression” value was “failed to exhibit increased effects”. With `N#CSc1cc(SC#N)c(N)nc1N` [PR-619], in data set [2], the SF3B1 expression entry is reported as “significant decrease”. Still for that read-out and setting: under `O=C1c2ccccc2C(=O)c2oc(-c3cccnc3)nc21` [SJB3-019A] stands “significant decrease”. As to `CO[C@]1(C)C[C@@]2(CO2)[C@H](O)[C@@H](/C=C/C(C)=C/C[C@@H]2O[C@H](C)[C@H](NC(=O)/C=C\[C@H](C)OC(C)=O)C[C@@H]2C)O1` [Spliceostatin A], the cell death result in data set [1] (Hs578T breast cancer cells, when suppression of SF3B1 expression is induced) is “increased cell death”. With `C=CC(=O)N1C/C(=C\c2ccc([N+](=O)[O-])cc2)C(=O)/C(=C/c2ccc([N+](=O)[O-])cc2)C1` [b-AP15], the SF3B1 expression result in data set [2] is recorded as “significant decrease”.

B1: TR-shSF3B1#3: doxycycline-inducible shRNA targeting SF3B1 in pLKO-Tet-puro, SEQ ID NO: 12/13 (nucleic acid)
sense: CCGGCAACTCCTTATGGTATCGAATCTCGAGATTCGATACCATAAGGAGTTGTTTTTG
antisense: AATTCAAAAACAACTCCTTATGGTATCGAATCTCGAGATTCGATACCATAAGGAGTTG
Take B1: the “number of proliferative Ki67+ cells” value in data set [3] (Ki67 immunohistochemistry) is recorded as “reduced”. Further, the growth of tumor entry in data set [3] (luminescent quantification) is “reduced the growth of tumor”. For the same molecule, the values for the tumor growth entry in data set [4] and in data set [5] were “reduced tumor growth was observed” and “not in SF3B1^neutral Cal51 xenografts”, respectively.
